Patent US20110184178A1, “POLYMORPHS OF 5-(3-(ETHYLSULFONYL)PHENYL)-3,8-DIMETHYL-N-(1-METHYLPIPERIDIN-4-YL)-9H-PYRIDO[2,3-B]INDOLE-7-CARBOXAMIDE AND METHODS OF USE THEREFOR” (Takeda Pharmaceutical Company Limited, priority 2008, published 2011)
Counter-ions that a name gives are not always drawn. Blank lines part the entries; values can stand above or below the compound they belong to.

Key:
Format in all cases: physicochemical
[1] = Solubility study of Form A in de-ionized water and 20 mM phosphate buffer at pH 3.2 (HPLC, XRPD of solids); conditions: for solubility: thermodynamic from solid
Method: Solubility was determined for Form A of Compound I by suspending the material in de-ionized water and 20 mM phosphate buffer at pH 3.2 and ambient temperature. Approximately 40 mg of Form A of Compound I was charged to 2-dram amber vials equipped with magnetic stir bars, followed by the addition of DI water or phosphate buffer (2.0 mL) in one portion. The samples were allowed to equilibrate with stirring for 16 h, followed by centrifugation. An aliquot of the supernatant liquid was analyzed by HPLC, and the solids isolated by filtration and dried under vacuum at ambient temperature for analysis by XRPD. Samples were allowed to stir for an additional 6 days and concentration determined by HPLC.

[2] = Moisture-sorption analysis (gravimetric adsorption/desorption, 25° C.)
Method: Further, the material gained enough water to form the dihydrate in approximately 45 minutes at 30% RH during adsorption and lost enough water to form the anhydrate at 15% RH during desorption in less than 60 minutes. […] The sample was further allowed to equilibrate at ambient laboratory conditions overnight and reanalyzed by XRPD. […] The moisture sorption experiment of Form C of Compound I provides a curve similar to the Form A curve (FIG. 11). […] Further, the material gained enough water to form the dihydrate in less than 60 minutes at 30% RH during adsorption and lost enough water to form the anhydrate at 15% RH during desorption in approximately 80 minutes. […] Moisture-sorption experiments were carried out on all samples by first drying the sample at 0% RH and 25° C. until an equilibrium weight was reached or for a maximum of four hours. The sample was then subjected to an isothermal (25° C.) adsorption scan from 10 to 90% RH in steps of 10%. Samples were then allowed to equilibrate to an asymptotic weight at each point for a maximum of four hours. Following adsorption, a desorption scan from 85 to 0% RH (at 25° C.) was run in steps of −10% again allowing a maximum of four hours for equilibration to an asymptotic weight. Samples were dried for one hour at 80° C. and the resulting solids analyzed by XRPD.

[3] = Physical characterization of the polymorphs and salt (XRPD, DSC, TGA, 1H-NMR, KF, moisture sorption): stability assessment; conditions: solid form
Method: Described herein are Form A, Form B, Form C, Form D, Form E, Form F and Form G of Compound I. Various tests were performed in order to physically characterize the polymorphs of Compound I, including X-ray powder diffraction (XRPD), differential scanning calorimetry (DSC), thermogravimetric analysis (TGA), solution proton nuclear magnetic resonance (^1H-NMR), and moisture sorption and desorption analysis (M S/Des). Detailed experimental conditions for each of the analytical techniques are described in the Examples section. […] A summary of these experiments and the results are presented below and in Table 12.

[4] = Approximate solubility screen of Compound I in different solvents; conditions: for solubility: organic solvent or mixture, thermodynamic from solid
Method: A solubility screen of Compound I was evaluated in 20 different solvents chosen as MeCN, dioxane, acetone, MtBE, EtOH, EtOAc, IPAc, IPA, THF, 2-MeTHF, MEK, DMF, AcOH, MeOH, cyclohexane, heptane, DCM, toluene, NMP, and DMAc, to select appropriate primary and binary solvents for the polymorph screen. One to four mg of the Compound I was charged to 2-dram clear vials equipped with magnetic stir bars and solvent was added in 250-μL portions with heating to 55° C. until complete dissolution was observed or a maximum of 6 mL was added. […] Solvents and other reagents were of ACS or HPLC grade and were used as received.

[5] = Slurry experiments (form by XRPD after slurrying in a solvent); conditions: 2.0 mL
Method: 50 to 60 mg of Form A of Compound I was weighed out into 2 dram amber vials and the material was slurried in 2 mL of a solvent. The slurry experiments were carried out at either ambient temperature or at 40° C. Samples were obtained from slurries after one day, one week, and two weeks. Tables 15 and 16 detail the results of the slurry experiments.

[6] = Form A slurried in water, 40 ° C.
[7] = Form A slurried in water, Ambient

Structure (SMILES): CCS(=O)(=O)c1cccc(-c2cc(C(=O)NC3CCN(C)CC3)c(C)c3[nH]c4ncc(C)cc4c23)c1 [Form E, 5-(3-(ethylsulfonyl)phenyl)-3,8-dimethyl-N-(1-methylpiperidin-4-yl)-9H-pyrido[2,3-b]indole-7-carboxamide]
stability (based on the available characterization data) [3]: stable under ambient non-aqueous conditions

Structure (SMILES): CCS(=O)(=O)c1cccc(-c2cc(C(=O)NC3CCN(C)CC3)c(C)c3[nH]c4ncc(C)cc4c23)c1 [Form B, 5-(3-(ethylsulfonyl)phenyl)-3,8-dimethyl-N-(1-methylpiperidin-4-yl)-9H-pyrido[2,3-b]indole-7-carboxamide]
stability (based on the available characterization data) [3]: stable under ambient non-aqueous conditions

Structure (SMILES): CCS(=O)(=O)c1cccc(-c2cc(C(=O)NC3CCN(C)CC3)c(C)c3[nH]c4ncc(C)cc4c23)c1 [Form D, 5-(3-(ethylsulfonyl)phenyl)-3,8-dimethyl-N-(1-methylpiperidin-4-yl)-9H-pyrido[2,3-b]indole-7-carboxamide]
stability (based on the available characterization data) [3]: stable under ambient non-aqueous conditions

More lines, main results first:

form conversion in aqueous media ([1]; during the solubility determination): converted to Form A | time to lose enough water to form the anhydrate ([2]; at 15% RH during desorption): approximately 80 minutes | time to gain enough water to form the dihydrate ([2]; at 30% RH during adsorption): less than 60 minutes
Structure (SMILES): CCS(=O)(=O)c1cccc(-c2cc(C(=O)NC3CCN(C)CC3)c(C)c3[nH]c4ncc(C)cc4c23)c1 [Form C, 5-(3-(ethylsulfonyl)phenyl)-3,8-dimethyl-N-(1-methylpiperidin-4-yl)-9H-pyrido[2,3-b]indole-7-carboxamide]
hydration state in the moisture sorption experiment ([2]; during both adsorption and desorption, 25° C.): convert to a stable dihydrate above 20% RH | stability (based on the available characterization data) [3]: stable under ambient low humidity conditions

stability (based on the available characterization data) [3]: stable under ambient conditions
Structure (SMILES): CCS(=O)(=O)c1cccc(-c2cc(C(=O)NC3CCN(C)CC3)c(C)c3[nH]c4ncc(C)cc4c23)c1 [HPF6 salt of Compound I]

Soluble ([4]; 2-Me—THF, 1.6 mg, 5.75 mL, heating to 55° C.): No | Soluble ([4]; AcOH, 2.1 mg in 0.75 mL, Temp RT): Yes | Conc. ([4]; AcOH, Temp RT, 2.1 mg in 0.75 mL): 2800 µg/mL | Soluble ([4]; DCM, 2.6 mg, 4.50 mL, heating to 55° C.): No | Soluble ([4]; DMA, 2.8 mg in 0.50 mL, Temp 55): Yes | Conc. ([4]; DMA, Temp 55, 2.8 mg in 0.50 mL): 5600 µg/mL | Soluble ([4]; DMF, 1.8 mg in 0.50 mL, Temp RT): Yes | Conc. ([4]; DMF, Temp RT, 1.8 mg in 0.50 mL): >3600 µg/mL | Soluble ([4]; EtOAc, 2.2 mg, 5.75 mL, heating to 55° C.): No | Soluble ([4]; EtOH, 1.6 mg in 4.75 mL, Temp 55): Yes | Conc. ([4]; EtOH, Temp 55, 1.6 mg in 4.75 mL): 340 µg/mL | Soluble ([4]; Heptane, 1.9 mg, 3.50 mL, heating to 55° C.): No | Soluble ([4]; IPAC, 2.6 mg, 5.75 mL, heating to 55° C.): No | Soluble ([4]; MTBE, 1.3 mg, 5.75 mL, heating to 55° C.): No | Soluble ([4]; MeCN, 1.7 mg in 5.75 mL, Temp 55): Yes | Conc. ([4]; MeCN, Temp 55, 1.7 mg in 5.75 mL): 300 µg/mL | Soluble ([4]; MeOH, 1.7 mg in 2.00 mL, Temp 55): Yes | Conc. ([4]; MeOH, Temp 55, 1.7 mg in 2.00 mL): 850 µg/mL | Soluble ([4]; NMP, 2.4 mg in 0.50 mL, Temp 55): Yes | Conc. ([4]; NMP, Temp 55, 2.4 mg in 0.50 mL): 4800 µg/mL | Soluble ([4]; THF, 1.3 mg in 3.75 mL, Temp 55): Yes | Conc. ([4]; THF, Temp 55, 1.3 mg in 3.75 mL): 350 µg/mL | Soluble ([4]; Toluene, 1.8 mg, 3.50 mL, heating to 55° C.): No | Soluble ([4]; c-Hexane (cyclohexane), 1.8 mg, 3.50 mL, heating to 55° C.): No | solubility (in words) ([4]; in MeCN, MTBe, EtOAc, IPAc, IPA, THF, MEK, heptane and water): Poor solubility | solubility (in words) ([4]; in MeOH, DMF, DMA, NMP, CHCl3, AcOH and EtOH): Good solubility | solubility (in words) ([4]; in polar solvents including MeCN, EtOH, THF, DMF, AcOH, MeOH, NMP, and DMAc): appreciable solubility | solubility ([4]; Acetone, 1.8 mg, 5.75 mL, heating to 55° C.): < 330 µg/mL | solubility ([4]; Dioxane, 1.7 mg, 5.75 mL, heating to 55° C.): < 330 µg/mL | solubility ([4]; IPA, 1.2 mg, 5.75 mL, heating to 55° C.): < 330 µg/mL | solubility ([4]; MEK, 1.9 mg, 5.75 mL, heating to 55° C.): < 330 µg/mL | solubility ([1]; aqueous buffer, 20 mM phosphate buffer at pH 3.2): < 100 µg/mL | solubility ([1]; de-ionized water, water): < 100 µg/mL | XRPD Results Day 1* ([5]; Form A slurried in Acetone, Ambient): amorphous | XRPD Results Day 1* ([5]; Form A slurried in MEK, Ambient): amorphous | XRPD Results Day 1* ([5]; Form A slurried in THF, Ambient): amorphous | XRPD Results Day 1* [5, 6]: amorphous | XRPD Results Week 1* [5, 6]: amorphous | XRPD Results Day 1* [5, 7]: amorphous | XRPD Results Week 1* [5, 7]: amorphous
Structure (SMILES): CCS(=O)(=O)c1cccc(-c2cc(C(=O)NC3CCN(C)CC3)c(C)c3[nH]c4ncc(C)cc4c23)c1 [Compound I, 5-(3-(ethylsulfonyl)phenyl)-3,8-dimethyl-N-(1-methylpiperidin-4-yl)-9H-pyrido[2,3-b]indole-7-carboxamide]
